Measurements published in the supplement of paper PMC10307832.

Experiments:
Assay in all cases: relative viability (nuclei count vs DMSO), 5 days (fraction); higher = more cells survive
[1] = compound: C=CCNC1=C2C[C@@H](C)C[C@H](OC)[C@H](O)[C@@H](C)/C=C(\C)[C@H](OC(N)=O)[C@@H](OC)/C=C\C=C(/C)C(=O)NC(=CC1=O)C2=O [17-AAG] + C[C@]1(O)C[C@@H](c2nc(-c3ccc4ccc(-c5ccccc5)nc4c3)c3c(N)nccn32)C1 [Linsitinib] (partner 1 µM)
Outline: (§1)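 Lung cancer cell lines in 1536-well plates were dosed by pin tool the day after seeding, either with one drug alone or with a fixed anchor-drug dose plus five library-drug doses (not always all listed) in √10 steps. After 5 days, cells were fixed and their nuclei stained in one step (final 0.05% Triton X-100, 1% formaldehyde, 1 ug/ml Hoechst), then counted on 4× images. Relative viability is the nuclei count in treated wells divided by that in vehicle wells. Values are medians of duplicate plates.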

[2] = compound: C=CCNC1=C2C[C@@H](C)C[C@H](OC)[C@H](O)[C@@H](C)/C=C(\C)[C@H](OC(N)=O)[C@@H](OC)/C=C\C=C(/C)C(=O)NC(=CC1=O)C2=O [17-AAG] + Nc1nc2[nH]cc(CCc3ccc(C(=O)N[C@@H](CCC(=O)O)C(=O)O)cc3)c2c(=O)[nH]1 [Pemetrexed] (partner 0.2 µM)
Outline: as §1

[3] = compound: C=CCNC1=C2C[C@@H](C)C[C@H](OC)[C@H](O)[C@@H](C)/C=C(\C)[C@H](OC(N)=O)[C@@H](OC)/C=C\C=C(/C)C(=O)NC(=CC1=O)C2=O [17-AAG] + O=C(CCCCCCC(=O)Nc1ccccc1)NO [Vorinostat] (partner 1 µM)
Outline: as §1

[4] = compound: C=CCNC1=C2C[C@@H](C)C[C@H](OC)[C@H](O)[C@@H](C)/C=C(\C)[C@H](OC(N)=O)[C@@H](OC)/C=C\C=C(/C)C(=O)NC(=CC1=O)C2=O [17-AAG] + O=C(c1cc(Cc2n[nH]c(=O)c3ccccc23)ccc1F)N1CCN(C(=O)C2CC2)CC1 [Olaparib] (partner 8 µM)
Outline: as §1

Row | Cell Line | relative viability ([1]; first compound 0.00128 µM) | relative viability ([1]; first compound 0.004048 µM) | relative viability ([1]; first compound 0.0128 µM) | relative viability ([1]; first compound 0.04048 µM) | relative viability ([1]; first compound 0.128 µM) | relative viability ([2]; first compound 0.00128 µM) | relative viability ([2]; first compound 0.004048 µM) | relative viability ([2]; first compound 0.0128 µM) | relative viability ([2]; first compound 0.04048 µM) | relative viability ([2]; first compound 0.128 µM) | relative viability ([3]; first compound 0.00128 µM) | relative viability ([3]; first compound 0.004048 µM) | relative viability ([3]; first compound 0.0128 µM) | relative viability ([3]; first compound 0.04048 µM) | relative viability ([3]; first compound 0.128 µM) | relative viability ([4]; first compound 0.00128 µM) | relative viability ([4]; first compound 0.004048 µM) | relative viability ([4]; first compound 0.0128 µM) | relative viability ([4]; first compound 0.04048 µM) | relative viability ([4]; first compound 0.128 µM)
1 | NCI-H2023 | 0.595 | 0.501 | 0.103 | 0.117 | 0.0914 | 0.268 | 0.137 | 0.0942 | 0.0647 | 0.0873 | 0.572 | 0.37 | 0.112 | 0.0782 | 0.0643 | 0.472 | 0.163 | 0.0796 | 0.0702 | 0.0752
2 | NCI-H2085 | 0.9 | 0.844 | 1.02 | 0.849 | 0.533 | 0.944 | 0.923 | 0.911 | 0.877 | 0.828 | 0.787 | 0.809 | 0.861 | 0.665 | 0.599 | 0.869 | 0.76 | 0.78 | 0.748 | 0.674
3 | NCI-H2087 | 0.886 | 0.797 | 0.344 | 0.248 | 0.197 | 0.606 | 0.618 | 0.354 | 0.163 | 0.128 | 0.996 | 0.656 | 0.252 | 0.116 | 0.116 | 0.649 | 0.216 | 0.168 | 0.134 | 0.129
4 | NCI-H2126 | 0.753 | 0.688 | 0.776 | 0.692 | 0.373 | 0.689 | 0.749 | 0.746 | 0.257 | 0.258 | 0.865 | 0.933 | 0.782 | 0.199 | 0.227 | 0.895 | 0.887 | 0.893 | 0.762 | 0.265
5 | NCI-H2228 | 0.614 | 0.264 | 0.171 | 0.15 | 0.141 | 0.333 | 0.158 | 0.11 | 0.148 | 0.12 | 0.691 | 0.588 | 0.168 | 0.167 | 0.12 | 0.523 | 0.21 | 0.127 | 0.111 | 0.147
6 | NCI-H2347 | 0.91 | 0.84 | 0.997 | 0.656 | 0.37 | 0.426 | 0.463 | 0.517 | 0.376 | 0.331 | 0.569 | 0.557 | 0.524 | 0.329 | 0.379 | 0.589 | 0.607 | 0.496 | 0.349 | 0.341
7 | NCI-H2405 | 1.02 | 0.737 | 0.262 | 0.219 | 0.194 | 1.05 | 0.956 | 0.267 | 0.186 | 0.156 | 1.08 | 0.994 | 0.391 | 0.209 | 0.193 | 0.797 | 0.856 | 0.275 | 0.233 | 0.168
8 | NCI-H3122 | 1.02 | 0.985 | 0.254 | 0.207 | 0.138 | 0.198 | 0.191 | 0.127 | 0.122 | 0.11 | 0.934 | 0.816 | 0.219 | 0.111 | 0.0733 | 0.598 | 0.61 | 0.538 | 0.288 | 0.124
9 | PC-3 [JPC-3] | 1 | 0.883 | 0.959 |  | 0.911 | 1.23 | 1.12 | 1.18 | 0.491 | 0.85 | 1 | 0.819 | 0.795 | 0.503 | 0.8 | 1.23 | 1.17 | 1.16 | 0.581 | 0.697
10 | PC-14 | 1 | 0.879 | 0.575 | 0.169 | 0.124 | 0.143 | 0.166 | 0.111 | 0.0924 | 0.0882 | 0.683 | 0.464 | 0.0532 | 0.081 | 0.056 | 0.298 | 0.132 | 0.0665 | 0.0524 | 0.0698
11 | RERF-LC-KJ | 0.857 | 0.886 | 0.923 | 0.881 | 0.275 | 0.47 | 0.514 | 0.33 | 0.255 | 0.219 | 0.796 | 0.686 | 0.475 | 0.321 | 0.222 | 0.954 | 0.648 | 0.291 | 0.249 | 0.216
12 | SK-LU-1 | 1.19 | 0.455 | 0.352 | 0.212 | 0.191 | 0.999 | 0.63 | 0.28 | 0.27 | 0.19 | 0.86 | 0.556 | 0.293 | 0.253 | 0.199 | 0.512 | 0.439 | 0.301 | 0.153 | 0.173
13 | SK-MES-1 | 1 | 1.01 | 0.598 | 0.282 | 0.165 | 0.951 | 0.781 | 0.284 | 0.171 | 0.153 | 1.1 | 1.03 | 0.514 | 0.182 | 0.179 | 0.732 | 0.494 | 0.184 | 0.17 | 0.16
14 | SW 1573 | 0.987 | 0.901 | 0.647 | 0.249 | 0.128 | 0.819 | 0.93 | 0.164 | 0.11 | 0.0923 | 0.782 | 1.01 | 0.241 | 0.128 | 0.0675 | 0.441 | 0.234 | 0.182 | 0.113 | 0.0907
15 | UMC-11 | 0.967 | 0.943 | 0.751 | 0.299 | 0.178 | 0.793 | 0.741 | 0.576 | 0.246 | 0.183 | 0.467 | 0.363 | 0.343 | 0.229 | 0.222 | 0.519 | 0.376 | 0.261 | 0.0963 | 0.174
